# Reference: patent publication US20090306093A1, “METHOD FOR TREATING PATIENT HAVING BENIGN PROSTATE HYPERPLASIA” (KAOHSIUNG MEDICAL UNIVERSITY, priority 2008, published 2009)
# Tests used:
# PKG = experiment: Western blot of PKG expression in rat prostate
# Experimental: Prostate strips were incubated with KMUP-1 (10-100 μM), sildenafil (100 μM) and zaprinast (100 μM) in 10 mL Tyrode solution aerated with 95% O2 and 5% CO2 for 1 hour. To examine the possible mechanisms of KMUP-1 action, the rat prostate were pretreated with ODQ (10 μM), SQ22536 (10 μM) and RP-8pCPT-cGMPs (10 μM) for 30 minutes prior to the addition of KMUP-1 (100 μM).
# (§1) In order to examine the expression of Rho kinase in prostate, the prostate strips were pre-incubated with phenylephrine (10 μM) for 30 minutes. After a pre-treatment of phenylephrine, KMUP-1 (10-100 μM) and Y-27632 (10 μM) were further incubated for 30 minutes. After the incubation time, the prostate were extracted with protein extraction reagent (Pierce Biotechnology, Inc., Rockford, Ill., USA.). The PZ-HPV-7 cells were incubated with and without KMUP-1 (0.1-10 μM) at 30 minutes, 8 and 24 hours. They were then washed rapidly with ice-cold PBS, incubated with protein extraction reagent, and scraped from the plates. The prostate tissues and cells were sonicated three times for 10 second each time and centrifuged at 13,000 rpm at 4° C. for 30 minutes. The protein concentrations of supernatants were determined, using bovine serum albumin as the standard. Tissue and cell extract protein were then boiled at a ratio of 4:1 with sample buffer (100 mM Tris, pH 6.8, 20% glycerol, 4% SDS, and 0.2% bromphenol blue). 40-60 μg protein was used in this experiment. Electrophoresis was performed using 10 or 12% SDS-polyacrylamide gel electrophoresis and then transferred to nitrocellulose membranes (Millipore Corporation, Billerica, Mass.). The membrane was blocked with Tris-buffered saline (20 mM Tris and 137 mM NaCl, pH 7.6) containing 0.1% Tween 20 (TTBS) and 5% non-fat milk at room temperature for 1 hour, washed with TTBS, and then incubated overnight at 4° C. in the appropriate primary antibody of PKG (Santa Cruz, 1:200), sGCa1 (Santa Cruz, 1:200), PKA (Abcam, 1:1000), ROCK2 (Upstate, 1:1000), and PDE5A (BD Biosciences, 1:1000), p21 (Upstate, 1:1000). The membranes were washed in TTBS before being incubated with horseradish peroxidase-conjugated antibody against mouse, goat, or rabbit IgG (Santa Cruz, 1:1000) for 1 hour. The membrane was then washed in TTBS and developed with the enhanced chemiluminescence (ECL) for the detection of the specific antigen. The intensity of the bands was measured by densitometry.
# ROCK2 = experiment: Quantitative RT-PCR of Rho kinase (ROCK2) mRNA in PZ-HPV-7 cells; format: cell-based, human
# Experimental: […] After the incubation, total RNA is isolated by processing the PZ-HPV-7 cells with TRI REAGEANT (Molecular Research Center, INC., Cincinnati, Ohio, USA) and 1-bromo-3chloropropane (BCP). Isopropanol was used to precipitate the isolated RNA; ethanol (75%) was used to wash the unwanted solution. The samples were then air-dried for 15 minutes at the room temperature. The pellet was re-suspended in 20 μL of DEPC-water (Ambion). After the RNA isolation, total RNA (2 μg) was used for the reverse transcription to cDNA by High-Capacity cDNA Reverse Transcription Kits (Applied Biosystems).
# Quantitation of Rho kinase and an internal reference gene (GAPDH) were done by fluorescence-based real-time detection (ABI PRISM 7900HT Sequence Detection System (Taqman); Applied Biosystems, Foster City, Calif.). The PCR reaction mixture consisted of 1× TaqMan Master Mix, 1× Probe/primers Assay Mix, 100 ng cDNA, and water containing a reference dye, to a final volume of 20 μL (all reagents from Applied Biosystems). Cycling conditions were 50° C. for 2 minutes, 95° C. for 10 minutes, followed by 40 cycles at 95° C. for 15 second and 60° C. for 1 minute. Gene expression values (relative mRNA levels) are expressed as ratios (differences between the Ct values) between the genes of interest and an internal reference gene (GAPDH) providing a normalization factor for the amount of RNA isolated from cells. This analysis was performed by 7900 HT SDS 2.2.1 software.
# cAMP = experiment: Determination of cAMP in rat isolated prostate (radioimmunoassay); details: for cAMP levels: 1 hour
# Experimental: Isolated prostate strips from Wistar rats were prepared to determine prostate levels of cGMP and cAMP. Briefly, prostate strips were respectively incubated with KMUP-1 (10-100 μM), sildenafil (100 μM), and zaprinast (100 μM) in 10 mL Tyrode solution aerated with 95% O2 and 5% CO2 for 1 hour. To examine the possible mechanisms of action of KMUP-1, the rat prostate was pretreated with ODQ (10 μM, sGC inhibitor) and SQ22536 (9-(tetrahydro-2-furanyl)-9H-purin-6-amine, 10 μM, adenylyl cyclase inhibitor) for 30 minutes before KMUP-1 was added. After the incubation, the prostate tissues were extracted with 1 mL of 0.1 N HCl. The extracts were then lyophilized for a further measurement of cyclic GMP or cyclic AMP of each sample, using commercially available radioimmunoassay kits (Amersham Pharmacia Biotech, Buckinghamshire, England).
# p21 = experiment: Western blot of p21 protein in PZ-HPV-7 cells; format: cell-based, human; details: 1, 10 μM, until 24 hours
# Experimental: as §1, with “The membrane was blocked with Tris-buffered saline (20 mM Tris and 137 mM NaCl, pH 7.6) containing 0.1% Tween 20 (TTBS) and 5% non-fat milk at room temperature for 1 hour, washed with TTBS, and then incubated overnight at 4° C. in the appropriate primary antibody of PKG (Santa Cruz, 1:200), sGCa1 (Santa Cruz, 1:200), PKA (Abcam, 1:1000), ROCK2 (Upstate, 1:1000), and PDE5A (BD Biosciences, 1:1000), p21 (Upstate, 1:1000). The membranes were washed in TTBS before being incubated with horseradish peroxidase-conjugated antibody against mouse, goat, or rabbit IgG (Santa Cruz, 1:1000) for 1 hour. The membrane was then washed in TTBS and developed with the enhanced chemiluminescence (ECL) for the detection of the specific antigen.” left out
structure (smiles),measurement,setting,value
"Cn1c(=O)c2c(ncn2CCN2CCN(c3ccccc3Cl)CC2)n(C)c1=O [KMUP-1, 7-[2-[4-(2-Chlorobenzene)piperazinyl]ethyl]-1,3-dimethyl xanthine]",expression of PKG,PKG; KMUP-1 100 μM after pretreatment of RP-8-pCPT-cGMPs 10 μM for 30 minutes,significantly reduce
same,expression of PKG,"PKG; KMUP-1 10, 100 μM, sildenafil, zaprinast 100 μM",significantly induce
same,Rho kinase gene expression,"ROCK2; 1 μM, 24 hours",96.00±10.00 % of control
same,Rho kinase gene expression,"ROCK2; 1 μM, 48 hours",90.00±10.05 % of control
same,Rho kinase gene expression,"ROCK2; 10 μM, 24 hours",80.00±8.80 % of control
same,Rho kinase gene expression,"ROCK2; 10 μM, 48 hours",66.00±5.80 % of control
same,Rho kinase gene expression,"ROCK2; 100 μM, 24 hours",68.00±5.01 % of control
same,Rho kinase gene expression,"ROCK2; 100 μM, 48 hours",52.00±7.01 % of control
same,cAMP levels,cAMP; 10 μM,1.74±0.51 pmol mg^−1 protein
same,cAMP levels,cAMP; 100 μM,2.82±0.42 pmol mg^−1 protein
same,accumulation of cAMP,cAMP; KMUP-1 100 μM in the presence of SQ22536 10 μM,2.16±0.79 pmol mg^−1 protein
same,production of p21 protein levels,p21,potently induces
